Experimental data taken from patent EP2262764B1, “NOVEL N-BENZYLAMIDE SUBSTITUTED DERIVATIVES OF 2-(ACYLAMIDO)ACETIC ACID AND 2-(ACYLAMIDO)PROPIONIC ACIDS: POTENT NEUROLOGICAL AGENTS” (The University of North Carolina At Chapel Hill, priority 2008, dated 2009).
Like-named read-outs stand apart in the source and are kept apart here.

Key:
[1] = test system: maximal electroshock (MES)-induced seizures; experiment: maximal electroshock seizure (MES) test, mice ip; conditions: for ED50: Mus musculus, ip
Description: The structure-activity relationship of functionalized amino acids (1).

neurologic toxicity [2] = experiment: neurologic toxicity (Tox), rat po; format: in vivo; conditions: for TD50: in vivo
6 Hz seizure model = experiment: 6 Hz seizure model, mice ip
[3] = test system: maximal electroshock (MES)-induced seizures; experiment: maximal electroshock seizure (MES) test, rat po; conditions: for PI / MES, ED50: Rat (po); for PI: PI = TD50/ED50; for ED50: Rattus norvegicus, po
neurologic toxicity [4] = experiment: neurologic toxicity (Tox), rotorod test, mice ip; conditions: for TD50: mouse, in vivo, ip, Tox, TD50, Mice (ip)
[5] = test system: bi-phasic licking response; experiment: formalin test (0.5% formalin into hind paw, bi-phasic licking response); format: in vivo, mouse; conditions: dose 16.0 (CH2C≡CH/H), 8.0 (CH3/N3), 20.0 (CH2C≡CH/N3) mg/kg
Procedure: Compounds of the present invention were active in treating pain in a formalin test carried out in accordance with standard techniques, as described in S. Hunskaar et al., J. Neurosci. Methods 14: 69-76 (1985). Briefly, 0.5% formalin is injected into the mouse hind paw to elicit a bi-phasic licking response, where the first acute phase is thought to correspond to the direct stimulation of peripheral fibers and the second (inflammatory) phase is caused by the release of inflammatory mediators.

[6] = neurologic toxicity (Tox), rotorod test, mice ip; conditions: mouse, in vivo, ip, Tox, TD50, Mice (ip); time in hours in second brackets; [x; y] = between doses x and y
[7] = neurologic toxicity (Tox), rat po; format: in vivo; conditions: in vivo, time in hours in brackets
[8] = test system: maximal electroshock (MES)-induced seizures; conditions: rat, in vivo, po
[9] = read-out: MES ED50, values of the running text, mice (ip)
[10] = read-out: MES, ED50, Mice (ip), time in hours in second brackets, [x, y] = between doses x and y
[11] = time in hours in second brackets, [x, y] = between doses x and y
[12] = read-out: MES, ED50, Rat (po), time in hours in brackets
[13] = read-out: MES, ED50, mice, intraperitoneally (ip), 95% confidence intervals in parentheses
[14] = read-out: MES, ED50, Mice (ip), time of peak effect in hours in brackets in the cell
[15] = read-out: MES, ED50, Rat (po), time of peak effect in hours in brackets in the cell
[16] = Mice (ip), time in hours in second brackets, [x, y] = between doses x and y
[17] = rotorod test, time of peak effect in hours in brackets in the cell
[18] = time in hours in brackets in the cell

CC(=O)NC(C)C(=O)NCc1ccccc1 (racemic) [(R,S)-4]
ED50 ([1]; read-out: MES, ED50): 77 mg/kg

CC(=O)NC(C(=O)NCc1ccccc1)c1ccccc1 (racemic) [(R,S)-6]
ED50 ([1]; read-out: MES ED50): 32 mg/kg | ED50 ([1]; read-out: MES, ED50): 32 mg/kg

CCOCC(NC(C)=O)C(=O)NCc1ccccc1 (racemic) [(R,S)-10]
ED50 [1, 9]: 17 mg/kg

C=CCOCC(NC(C)=O)C(=O)NCc1ccccc1 (racemic) [(R,S)-11]
ED50 [1, 9]: 30 to 100 mg/kg

COC[C@@H](NC(C)=O)C(=O)NCc1ccc(OCc2cccc(F)c2)cc1 [(R)-3, (R)-2-Acetamido-N-(4-(3-fluorobenzyloxy)benzyl)-3-methoxypropanamide]
PI ([1]; Mice (ip), PI = TD50/ED50): ∼9.3 | ED50 [1, 10]: 10 to 30 mg/kg | TD50 (neurologic toxicity [2]; time in hours in brackets): > 30 mg/kg | Tox, TD50 (neurologic toxicity [2]; time in hours in brackets): > 500 [0.5] mg/kg | 6Hz, ED50 (given as fraction) (6 Hz seizure model; Mice (ip), […], dose not given): 2/4 [0.25] | PI [3]: > 36

COC[C@@H](NC(C)=O)C(=O)NCc1ccc(N=[N+]=[N-])cc1 [(R)-5, (R)-N-(4-Azidobenzyl)-2-acetamido-3-methoxypropanamide, reference compound]
TD50 (neurologic toxicity [4]; [11]): 46.2 mg/kg | TD50 (neurologic toxicity [2]; time in hours in brackets): > 250 mg/kg | PI [3]: > 64 | ED50 [3, 12]: 3.9 mg/kg | Area Under the Curve, % of Control ([5]; Acute phase): 58.67% | Area Under the Curve, Drug Tested ([5]; Acute phase): 131.4 | Area Under the Curve, % of Control ([5]; Inflammatory phase): 106.22% | Area Under the Curve, Drug Tested ([5]; Inflammatory phase): 694.5

COCC#Cc1ccc(CNC(=O)[C@@H](COC)NC(C)=O)cc1 [(R)-6, (R)-2-Acetamido-3-methoxy-N-(4-(3-methoxyprop-1-ynyl)benzyl)propanamide, reference compound]
Tox (death) (neurologic toxicity [4]; Mice (ip), observation printed in the Tox, TD50 column): Death at 100 | TD50 (neurologic toxicity [4]; [11]): 10 to 30 mg/kg | PI ([1]; Mice (ip), PI = TD50/ED50): ∼2.8 | ED50 [1, 10]: 3 to 10 mg/kg | ED50 [1, 13]: 26 mg/kg | TD50 (neurologic toxicity [2]; time in hours in brackets): < 30 mg/kg | PI [3]: > 30

C#CCOC[C@@H](NC(C)=O)C(=O)NCc1ccccc1 [(R)-7, (R)-N-Benzyl-2-acetamido-3-(prop-2-ynyloxy)propanamide]
Area Under the Curve, % of Control ([5]; Acute phase): 48.42% | Area Under the Curve, Drug Tested ([5]; Acute phase): 142.9 | Area Under the Curve, % of Control ([5]; Inflammatory phase): 54.99% | Area Under the Curve, Drug Tested ([5]; Inflammatory phase): 468.3

C#CCOC[C@@H](NC(C)=O)C(=O)NCc1ccccc1 [(R)-7]
TD50 [6]: 30 to 100 mg/kg | ED50 [1, 10]: 10 to 30 mg/kg | ED50 [1, 14]: 16 mg/kg | TD50 [7]: > 500 mg/kg | ED50 [3, 12]: 16 mg/kg | ED50 [3, 15]: 8 mg/kg

C#CCOC[C@@H](NC(C)=O)C(=O)NCc1ccc(N=[N+]=[N-])cc1 [(R)-8, (R)-N-(4-Azidobenzyl)-2-acetamido-3-(prop-2-ynyloxy)propanamide]
Area Under the Curve, % of Control ([5]; Acute phase): 58.28% | Area Under the Curve, Drug Tested ([5]; Acute phase): 119.9 | Area Under the Curve, % of Control ([5]; Inflammatory phase): 78.17% | Area Under the Curve, Drug Tested ([5]; Inflammatory phase): 414.3

C#CCOC[C@@H](NC(C)=O)C(=O)NCc1ccc(N=[N+]=[N-])cc1 [(R)-8]
TD50 [6]: 100 to 300 mg/kg | ED50 ([1]; read-out: MES, ED50): 20 mg/kg | TD50 [7]: > 500 mg/kg | ED50 [3, 12]: 45 mg/kg | ED50 [3, 15]: 12 mg/kg

C#CCOC[C@@H](NC(C)=O)C(=O)NCc1ccc(N=C=S)cc1 [(R)-9]
TD50 [6]: 68 mg/kg | TD50 [7]: > 30 mg/kg | ED50 [3, 12]: > 30 mg/kg | ED50 [3, 15]: > 30 mg/kg

COC[C@@H](NC(C)=O)C(=O)NCc1ccc(C(F)(F)F)cc1 [(R)-10]
TD50 [6]: 100 to 300 mg/kg | PI ([1]; Mice (ip), PI = TD50/ED50): ∼3.1 | ED50 [1, 10]: 30 to 100 mg/kg | TD50 [7]: > 30 mg/kg | ED50 [3, 12]: < 30 mg/kg

COC[C@@H](NC(C)=O)C(=O)NCc1ccc(COc2cccc(F)c2)cc1 [(R)-11]
TD50 [6]: 10 to 30 mg/kg | PI ([1]; Mice (ip), PI = TD50/ED50): ∼2.8 | ED50 [1, 10]: 3 to 10 mg/kg | Tox, TD50 (neurologic toxicity [2]; time in hours in brackets): > 30 [0.25 to 4.0] mg/kg | ED50 [3, 12]: < 30 mg/kg

COC[C@H](NC(C)=O)C(=O)NCc1ccc(OCc2cccc(F)c2)cc1 [(S)-3, (S)-2-Acetamido-N-(4-(3-fluorobenzyloxy)benzyl)-3-methoxypropanamide]
TD50 (neurologic toxicity [4]; [11]): > 300 mg/kg | ED50 [1, 10]: > 300 mg/kg

CC(=O)N[C@@H](C)C(=O)NCc1ccccc1 [(S)-4]
ED50 ([1]; read-out: MES, ED50): 550 mg/kg

COC[C@H](NC(C)=O)C(=O)NCc1ccc(N=[N+]=[N-])cc1 [(S)-5, (S)-N-(4-Azidobenzyl)-2-acetamido-3-methoxypropanamide, reference compound]
Tox, TD50 (neurologic toxicity [4]; [16]): > 300 mg/kg | ED50 [1, 10]: 100 to 300 mg/kg | ED50 [1, 13]: > 25 mg/kg | TD50 (neurologic toxicity [2]; time in hours in brackets): > 30 mg/kg | ED50 (6 Hz seizure model; Mus musculus, ip, read-out: 6Hz, ED50): ~100 mg/kg | ED50 [3, 12]: > 30 mg/kg

CC(=O)N[C@H](C(=O)NCc1ccccc1)c1ccccc1 [(S)-6]
ED50 ([1]; read-out: MES, ED50): > 300 mg/kg

C#CCOC[C@H](NC(C)=O)C(=O)NCc1ccccc1 [(S)-7, (S)-N-Benzyl-2-acetamido-3-(prop-2-ynyloxy)propanamide]
TD50 (neurologic toxicity [4]; [17]): > 300 mg/kg | ED50 [1, 14]: > 300 mg/kg | TD50 (neurologic toxicity [2]; [18]): > 30 mg/kg | ED50 [3, 15]: > 30 mg/kg

C#CCOC[C@H](NC(C)=O)C(=O)NCc1ccc(N=[N+]=[N-])cc1 [(S)-8, (S)-N-(4-Azidobenzyl)-2-acetamido-3-(prop-2-ynyloxy)propanamide]
TD50 (neurologic toxicity [4]; [17]): > 300 mg/kg | ED50 [1, 14]: 163 mg/kg | TD50 (neurologic toxicity [2]; [18]): > 30 mg/kg | ED50 [3, 15]: > 30 mg/kg

C#CCOC[C@H](NC(C)=O)C(=O)NCc1ccc(N=C=S)cc1 [(S)-9, (S)-N-(4-Isothiocyanatobenzyl)-2-acetamido-3-(prop-2-ynyloxy)propanamide]
TD50 (neurologic toxicity [4]; [17]): > 300 mg/kg | ED50 ([1]; read-out: MES, ED50): > 300 mg/kg

CCC1(c2ccccc2)C(=O)NC(=O)NC1=O [Phenobarbital, reference compound]
ED50 [1, 10]: 22 mg/kg | ED50 [1, 14]: 22 mg/kg | Tox, TD50 (neurologic toxicity [2]; time in hours in brackets): 61 [0.5] mg/kg | Tox, TD50 (neurologic toxicity [2]; [18]): 61 [0.5] mg/kg | ED50 [3, 12]: 9.1 mg/kg | ED50 [3, 15]: 9 mg/kg

O=C1NC(=O)C(c2ccccc2)(c2ccccc2)N1 [phenytoin, reference compound]
TD50 (neurologic toxicity [2]; [18]): > 3000 mg/kg | MES, ED50 ([3]; time in hours in brackets): 30 [4] mg/kg | ED50 ([3]; read-out: MES, ED50): 30 mg/kg

CCCC(CCC)C(=O)O [valproate]
PI ([1]; Mice (ip), PI = TD50/ED50): 1.6 | PI ([1]; Mice (ip), protective index (TD50/ED50)): 1.6 | MES, ED50 [1, 16]: 270 [0.25] mg/kg | ED50 ([1]; read-out: MES, ED50): 270 mg/kg | MES, ED50 ([3]; time in hours in brackets): 490 [0.5] mg/kg | ED50 ([3]; read-out: MES, ED50): 490 mg/kg | PI [8]: 0.6
